The text below walks through data of ChEMBL document CHEMBL1138499, “Anti-AIDS agents. 78. Design, synthesis, metabolic stability assessment, and antiviral evaluation of novel betulinic acid derivatives as potent anti-human immunodeficiency virus (HIV) agents” (J Med Chem, 2009).

One data set has as its system MT4. Kind of data set: Cytotoxicity against human MT4 cells by XTT assay. Type of data set: cell-based.
For data set [1], the system named is Human immunodeficiency virus 1. In words: Antiviral activity against HIV1 NL4-3 infected in human MT4 cells assessed as p24 antigen level after 4 days by ELISA. Type of data set: functional, organism-based. To be noted: Human immunodeficiency virus 1, NL4-3, MT4, 96 h.
Another data set relates to MT2. The note with it: human.
Data set [2] can be described thus: Therapeutic index, ratio of CC50 for human MT2 cells to EC50 for HIV1 3B. Type of data set: cell-based. The note with it: read-out: TI.
The subject of data set [3] is Human immunodeficiency virus 1. Kind of data set: Antiviral activity against HIV1 3B infected in human MT2 cells assessed as p24 antigen level after 4 days by ELISA. Type of data set: functional, organism-based. To be noted: Human immunodeficiency virus 1, 3B, MT2, 96 h.
For data set [4], the system named is Human immunodeficiency virus 1. Kind of data set: Antiviral activity against HIV1 3B infected in human MT2 cells assessed as p24 antigen level at their respective CC50 concentration after 4 days by ELISA. Type of data set: functional, organism-based.
Data set [5] is described as follows: Therapeutic index, ratio of CC50 for human MT4 cells to EC50 for HIV1 NL4-3. Type of data set: cell-based. The note with it: read-out: TI.
A short description of data set [6]: Metabolic stability in human liver microsomes assessed as drug remaining at 1 mg/mL after 15 mins by HPLC. Type of data set: ADME, Microsome. To be noted: read-out: Stability.
Data set [7] can be described thus: Metabolic stability in human liver microsomes assessed as drug remaining at 1 mg/mL after 5 mins by HPLC. Type of data set: ADME, Microsome. To be noted: read-out: Stability.
The nature of data set [8]: Metabolic stability in human liver microsomes assessed as drug remaining at 1 mg/mL after 120 mins by HPLC. Type of data set: ADME, Microsome. The note with it: read-out: Stability.
Data set [9] is described as follows: Metabolic stability in human liver microsomes assessed as drug remaining at 1 mg/mL after 60 mins by HPLC. The note with it: read-out: Stability. Type of data set: ADME, Microsome.
Data set [10] in a line: Metabolic stability in human liver microsomes assessed as drug remaining at 1 mg/mL after 30 mins by HPLC. Type of data set: ADME, Microsome. To be noted: read-out: Stability.

Description for MT2: Cytotoxicity against human MT2 cells by XTT assay

Take `C=C(C)[C@@H]1CC[C@]2(C(=O)N3CCC(CCCC(=O)NC)CC3)CC[C@]3(C)[C@H](CC[C@@H]4[C@@]5(C)CC[C@H](OC(=O)CC(C)(C)C(=O)O)C(C)(C)[C@@H]5CC[C@]43C)[C@@H]12`: the CC50 in the data set on MT4 is more than 10 µM; in the data set on MT2, 33.3 µM. Moreover, the half-maximal effective concentration (EC50) turned out to be 0.24 µM in data set [1] and 0.067 µM in [3]. Moreover, the selectivity ratio in [2] amounted to 497.
For `C=C(COCCc1ccc(Br)cc1)[C@@H]1CC[C@]2(C(=O)N[C@@H](CC(C)C)C(=O)O)CC[C@]3(C)[C@H](CC[C@@H]4[C@@]5(C)CC[C@H](O)C(C)(C)[C@@H]5CC[C@]43C)[C@@H]12`, the CC50 in the data set on MT2 turned out to be 20.8 µM. In addition, the half-maximal effective concentration (EC50) result in data set [4] is “Not Active”.
For the molecule `C=C(C)[C@@H]1CC[C@]2(C(=O)N3CCC(CCCC(=O)NCCN4CCOCC4)CC3)CC[C@]3(C)[C@H](CC[C@@H]4[C@@]5(C)CC[C@H](OC(=O)CC(C)(C)C(=O)O)C(C)(C)[C@@H]5CC[C@]43C)[C@@H]12`, the CC50 in the data set with MT4 was 8.5 µM; in the data set on MT2 it was 17.3 µM. Moreover, the EC50 was determined as 0.035 µM in [1] and 0.007 µM in data set [3]. Besides, the selectivity ratio in [5] was found to be 284; in data set [2], 2470.
On to `C=C(C)[C@@H]1CC[C@]2(C(=O)N3CCC(CCCC(=O)N4CCOCC4)CC3)CC[C@]3(C)[C@H](CC[C@@H]4[C@@]5(C)CC[C@H](OC(=O)CC(C)(C)C(=O)O)C(C)(C)[C@@H]5CC[C@]43C)[C@@H]12`, for which the CC50 was found to be 8.8 µM in the data set with MT4 and 19.2 µM with MT2. Besides, the figures for the EC50 in [1] and in data set [3] were 0.07 µM and 0.011 µM, respectively. For the same molecule, the selectivity ratio in data set [5] turned out to be 121; in [2], 1750.
Molecule `C=C(COCCc1ccc(F)cc1)[C@@H]1CC[C@]2(C(=O)N[C@@H](CC(C)C)C(=O)O)CC[C@]3(C)[C@H](CC[C@@H]4[C@@]5(C)CC[C@H](O)C(C)(C)[C@@H]5CC[C@]43C)[C@@H]12` returned a CC50 in the data set on MT2 of 24.4 µM. Moreover, in [4], the EC50 entry is given as “Not Active”.
Consider `C=C(C)[C@@H]1CC[C@]2(C(=O)N3CCC(CCCC(=O)NCCCN4CCOCC4)CC3)CC[C@]3(C)[C@H](CC[C@@H]4[C@@]5(C)CC[C@H](OC(=O)CC(C)(C)C(=O)O)C(C)(C)[C@@H]5CC[C@]43C)[C@@H]12`, for which the figures for the CC50 with MT4 and in the data set with MT2 were 8.6 µM and 18.5 µM, respectively. Further, the EC50 in [1] was determined as 0.031 µM; in data set [3] it was 0.006 µM. In addition, the selectivity ratio in data set [5] came to 246; in data set [2] it was 3090.
Take `C=C(CO)[C@@H]1CC[C@]2(C(=O)N[C@@H](CC(C)C)C(=O)O)CC[C@]3(C)[C@H](CC[C@@H]4[C@@]5(C)CC[C@H](O)C(C)(C)[C@@H]5CC[C@]43C)[C@@H]12`: the CC50 in the data set with MT2 was 30.7 µM. Moreover, the concentration for a half-maximal effect (EC50) entry in [4] is reported as “Not Active”.
For `C=C(CBr)[C@@H]1CC[C@]2(C(=O)N[C@@H](CC(C)C)C(=O)O)CC[C@]3(C)[C@H](CC[C@@H]4[C@@]5(C)CC[C@H](O)C(C)(C)[C@@H]5CC[C@]43C)[C@@H]12`, in that order: 26.8 µM and “Not Active”.
For `C=C(COCCC)[C@@H]1CC[C@]2(C(=O)N[C@@H](CC(C)C)C(=O)O)CC[C@]3(C)[C@H](CC[C@@H]4[C@@]5(C)CC[C@H](O)C(C)(C)[C@@H]5CC[C@]43C)[C@@H]12`, in that order: 25.3 µM and “Not Active”.
Consider `C=C(C)[C@@H]1CC[C@]2(C(=O)NCCCCCCCNC(C)=O)CC[C@]3(C)[C@H](CC[C@@H]4[C@@]5(C)CC[C@H](O)C(C)(C)[C@@H]5CC[C@]43C)[C@@H]12`, for which the CC50 with MT4 is more than 10 µM. Moreover, in data set [1], the concentration for a half-maximal effect (EC50) was determined as 0.092 µM. In addition, in [5], the selectivity ratio was more than 150.
For the molecule `C=C(COCC)[C@@H]1CC[C@]2(C(=O)N[C@@H](CC(C)C)C(=O)O)CC[C@]3(C)[C@H](CC[C@@H]4[C@@]5(C)CC[C@H](O)C(C)(C)[C@@H]5CC[C@]43C)[C@@H]12`, the CC50 in the data set on MT2 was 40.7 µM. For the same molecule, the concentration for a half-maximal effect (EC50) result in data set [4] was “Not Active”.
For `C=C(C)[C@@H]1CC[C@]2(C(=O)NCCCCCCCC(=O)N[C@@H](CC(C)C)[C@H](O)CC(=O)O)CC[C@]3(C)[C@H](CC[C@@H]4[C@@]5(C)CC[C@H](O)C(C)(C)[C@@H]5CC[C@]43C)[C@@H]12`, the CC50 in the data set on MT4 is more than 10 µM. Further, the concentration giving a half-maximal response (EC50) in [1] is 0.089 µM.
Take `C=C(COCCN1CCOCC1)[C@@H]1CC[C@]2(C(=O)NCCCCCCCC(=O)NC)CC[C@]3(C)[C@H](CC[C@@H]4[C@@]5(C)CC[C@H](O)C(C)(C)[C@@H]5CC[C@]43C)[C@@H]12`: the CC50 with MT4 was more than 10 µM; with MT2, 22.3 µM. Besides, the EC50 in data set [1] and in [3] was 0.09 µM in each case. Also, the selectivity ratio was more than 138 in data set [5] and 250 in data set [2].
`C=C(COCCc1ccc(OC)cc1)[C@@H]1CC[C@]2(C(=O)N[C@@H](CC(C)C)C(=O)O)CC[C@]3(C)[C@H](CC[C@@H]4[C@@]5(C)CC[C@H](O)C(C)(C)[C@@H]5CC[C@]43C)[C@@H]12` displayed a CC50 in the data set on MT2 of 16.7 µM. Moreover, the concentration giving a half-maximal response (EC50) entry in [4] is recorded as “Not Active”.
`C=C(C)[C@@H]1CC[C@]2(C(=O)N3CCC(CCCC(=O)O)CC3)CC[C@]3(C)[C@H](CC[C@@H]4[C@@]5(C)CC[C@H](O)C(C)(C)[C@@H]5CC[C@]43C)[C@@H]12`: the remaining at 0.25 h, 1 mg/mL in [6] was found to be 97.6%. Further, in data set [7], the remaining at 5 min, 1 mg/mL is 102%. The remaining at 2 h, 1 mg/mL in [8] was 53.8%. Also, in [9], the remaining at 1 h, 1 mg/mL was 62.7%. Further, in the data set with MT2, the CC50 amounted to 41 µM. Further, the selectivity ratio in [2] was 1.9. Further, the EC50 in data set [3] turned out to be 21.7 µM. In addition, the remaining at 0.5 h, 1 mg/mL in data set [10] stood at 81.4%.
With `C=C(COCCCC)[C@@H]1CC[C@]2(C(=O)N[C@@H](CC(C)C)C(=O)O)CC[C@]3(C)[C@H](CC[C@@H]4[C@@]5(C)CC[C@H](O)C(C)(C)[C@@H]5CC[C@]43C)[C@@H]12`, in the data set with MT2, the CC50 is 24.9 µM. In addition, the EC50 result in [4] is reported as “Not Active”.
Regarding `C=C(C)[C@@H]1CC[C@]2(C(=O)NCCCCCCCC(=O)O)CC[C@]3(C)[C@H](CC[C@@H]4[C@@]5(C)CC[C@H](O)C(C)(C)[C@@H]5CC[C@]43C)[C@@H]12`, in data set [6], the remaining at 0.25 h, 1 mg/mL was 70.7%. In data set [7], the remaining at 5 min, 1 mg/mL is 93.4%. Moreover, in data set [8], the remaining at 2 h, 1 mg/mL came to 7.9%. Besides, the remaining at 1 h, 1 mg/mL in data set [9] came out at 40.1%. For the same molecule, the CC50 in the data set on MT2 is 33.4 µM. The selectivity ratio in [2] came to 10.1. In data set [3], the concentration for a half-maximal effect (EC50) was found to be 3.3 µM. Moreover, the remaining at 0.5 h, 1 mg/mL in data set [10] was 61.9%.
In the data set with MT2, `C=C(COCCc1ccccc1)[C@@H]1CC[C@]2(C(=O)N[C@@H](CC(C)C)C(=O)O)CC[C@]3(C)[C@H](CC[C@@H]4[C@@]5(C)CC[C@H](O)C(C)(C)[C@@H]5CC[C@]43C)[C@@H]12` registered a CC50 of 21.7 µM. The EC50 result in [4] is “Not Active”.
